# Assay results from patent US12404265B2, “Substituted pyridine derivatives as SARM1 inhibitors” (Nura Bio, Inc., priority 2020, dated 2025).
# Target: T1, human SARM1(50-724) (Homo sapiens, UniProt Q6SZW1)
# T1 construct: 40 nM human SARM1(50-724)
# T1 sequence (Q6SZW1 50-724): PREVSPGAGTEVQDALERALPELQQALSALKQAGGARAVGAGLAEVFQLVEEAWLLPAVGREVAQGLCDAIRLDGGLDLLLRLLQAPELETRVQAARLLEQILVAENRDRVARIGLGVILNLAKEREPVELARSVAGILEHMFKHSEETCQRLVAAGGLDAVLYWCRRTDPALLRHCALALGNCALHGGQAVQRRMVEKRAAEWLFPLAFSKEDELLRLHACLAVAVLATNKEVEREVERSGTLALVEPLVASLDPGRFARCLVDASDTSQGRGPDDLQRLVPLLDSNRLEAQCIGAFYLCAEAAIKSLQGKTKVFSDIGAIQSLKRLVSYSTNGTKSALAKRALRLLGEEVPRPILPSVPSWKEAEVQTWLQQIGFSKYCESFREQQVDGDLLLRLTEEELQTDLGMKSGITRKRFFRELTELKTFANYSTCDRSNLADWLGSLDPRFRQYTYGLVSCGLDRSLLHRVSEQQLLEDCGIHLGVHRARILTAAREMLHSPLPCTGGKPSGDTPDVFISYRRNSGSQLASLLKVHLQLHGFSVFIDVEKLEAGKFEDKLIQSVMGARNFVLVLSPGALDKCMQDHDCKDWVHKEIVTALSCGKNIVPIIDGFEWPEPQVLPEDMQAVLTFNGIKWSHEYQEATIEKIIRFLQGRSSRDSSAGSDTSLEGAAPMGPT
# Test: SARM1 NADase biochemical assay (HPLC of NAD and NAM)
# Details: 40 nM human SARM1(50-724), 0.3 mM NMN, 20 μM NAD, 60 minutes room temperature; dose-response from 100 μM, 1:3 dilution
# Experimental: Each reaction was run at a volume of 20 μL containing 50 μM compound (dissolved in DMSO; final concentration of DMSO is 1% v/v), 40 nM human SARM1(50-724), 0.3 mM NMN, 20 μM NAD, 1 mM TCEP, 25 mM HEPES pH 7.4, 10 mM KCl and 10 mM MgCl2. The reaction was incubated at room temperature for 60 minutes and quenched with 20 μL of 0.4% formic acid. The samples were run on Agilent HPLC 1260 Infinity II with Synergi 2.5 μM Fusion-RP 100 Å (100×3.0 mm) LC column from Phenomenex. Total run time for each sample was 4 minutes. The run was isocratic with 1.5% methanol in 40 mM ammonium acetate pH 6.0. Samples were run at a flow rate of 0.8 mL/min at 55° C. Peak areas of NAD and NAM were determined using OpenLAB CDS (Chem Station edition) software. For dose-response, the compound was diluted serially 1:3 in DMSO and added to the reaction starting at a final compound concentration of 100 μM in 1% DMSO.
row,Structure (SMILES),IC50 [nM]
1,"Cc1c(-c2ccncc2)n[nH]c1NC(=O)C(F)Cc1ccc(Cl)cc1 (racemic) [Example 18, (rac)-3-(4-chlorophenyl)-2-fluoro-N-(4-methyl-3-(pyridin-4-yl)-1H-pyrazol-5-yl)propanamide]",< 1000
2,CC(=O)N(C(=O)CCc1ccc(Cl)cc1)c1[nH]nc(-c2ccncc2)c1C [Example 1],< 1000
3,"CCC(=O)N(C(=O)CCc1ccc(Cl)cc1)c1[nH]nc(-c2ccncc2)c1C [Example 2, 3-(4-Chlorophenyl)-N-(4-methyl-3-(pyridin-4-yl)-1H-pyrazol-5-yl)-N-propionylproanamide]",1000 to 10000
4,"Cc1c(-c2ccncc2)n[nH]c1N(C(=O)CCc1ccc(Cl)cc1)C(=O)CCc1ccc(Cl)cc1 [Example 3, 3-(4-Chlorophenyl)-N-(3-(4-chlorophenyl)propanoyl)-N-(4-methyl-3-(pyridin-4-yl)-1H-pyrazol-5-yl)propanamide]",< 1000
5,"Cc1c(-c2ccncc2)n[nH]c1N(C(=O)CCc1ccc(Cl)cc1)C(=O)CCc1cccc(Cl)c1 [Example 4, 3-(3-Chlorophenyl)-N-(3-(4-chlorophenyl)propanoyl)-N-(4-methyl-3-(pyridin-4-yl)-1H-pyrazol-5-yl)propanamide]",< 1000
6,"Cc1c(-c2ccncc2)n[nH]c1N(C(=O)CCc1ccc(Cl)cc1)C(=O)CCc1ccccc1Cl [Example 5, 3-(2-Chlorophenyl)-N-(3-(4-chlorophenyl)propanoyl)-N-(4-methyl-3-(pyridin-4-yl)-1H-pyrazol-5-yl)propanamide]",< 1000
7,"Cc1c(-c2ccncc2)n[nH]c1N(C(=O)CCc1ccccc1)C(=O)CCc1ccc(Cl)cc1 [Example 6, 3-(4-Chlorophenyl)-N-(4-methyl-3-(pyridin-4-yl)-1H-pyrazol-5-yl)-N-(3-phenylpropanoyl)propanamide]",< 1000
8,"Cc1c(-c2ccncc2)n[nH]c1N(C(=O)CCc1ccc(Cl)cc1)C(=O)CCC(C)C [Example 7, N-(3-(4-Chlorophenyl)propanoyl)-4-methyl-N-(4-methyl-3-(pyridin-4-yl)-1H-pyrazol-5-yl)pentanamide]",1000 to 10000
9,"Cc1c(-c2ccncc2)n[nH]c1N(C(=O)CCc1ccc(Cl)cc1)C(=O)CCC1CCCC1 [Example 8, 3-(4-Chlorophenyl)-N-(3-cyclopentylpropanoyl)-N-(4-methyl-3-(pyridin-4-yl)-1H-pyrazol-5-yl)propanamide]",< 1000
10,"Cc1c(-c2ccncc2)n[nH]c1N(C(=O)CCc1cc(F)c(Cl)c(F)c1)C(=O)CCc1cc(F)c(Cl)c(F)c1 [Example 9, 3-(4-Chloro-3,5-difluorophenyl)-N-(3-(4-chloro-3,5-difluorophenyl)propanoyl)-N-(4-methyl-3-(pyridin-4-yl)-1H-pyrazol-5-yl)propanamide]",< 1000
11,"Cc1c(-c2ccncc2)n[nH]c1N(C(=O)CCc1cc(F)c(F)c(F)c1)C(=O)CCc1cc(F)c(F)c(F)c1 [Example 10, N-(4-Methyl-3-(pyridin-4-yl)-1H-pyrazol-5-yl)-3-(3,4,5-trifluorophenyl)-N-(3-(3,4,5-trifluorophenyl)propanoyl)propanamide]",< 1000
12,"Cc1c(-c2ccncc2)n[nH]c1N(C(=O)CCc1ccc(Cl)cc1)S(C)(=O)=O [Example 11, 3-(4-Chlorophenyl)-N-(4-methyl-3-(pyridin-4-yl)-1H-pyrazol-5-yl)-N-(methylsulfonyl)propanamide]",< 1000
13,"Cc1c(-c2ccncc2)n[nH]c1N(C(=O)CCc1ccc(Cl)cc1)C(=O)C(C)C [Example 12, 3-(4-Chlorophenyl)-N-isobutyryl-N-(4-methyl-3-(pyridin-4-yl)-1H-pyrazol-5-yl)propanamide]",1000 to 10000
14,"CCc1c(-c2ccncc2)n[nH]c1NC(=O)CCc1cc(F)c(Cl)c(F)c1 [Example 13, 3-(4-Chloro-3,5-difluorophenyl)-N-(4-ethyl-3-(pyridin-4-yl)-1H-pyrazol-5-yl)propanamide]",< 1000
15,"CCc1c(-c2ccncc2)n[nH]c1NC(=O)CCc1ccc(Cl)cc1 [Example 14, 3-(4-Chlorophenyl)-N-(4-ethyl-3-(pyridin-4-yl)-1H-pyrazol-5-yl)propanamide]",< 1000
16,"CCc1c(-c2ccncc2)n[nH]c1NC(=O)CCc1cc(F)c(C#N)c(F)c1 [Example 15, 3-(4-Cyano-3,5-difluorophenyl)-N-(4-ethyl-3-(pyridin-4-yl)-1H-pyrazol-5-yl)propanamide]",< 1000
17,"CCc1c(-c2ccncc2)n[nH]c1NC(=O)CCc1ccc(C#N)c(F)c1 [Example 16, 3-(4-Cyano-3-fluorophenyl)-N-(4-ethyl-3-(pyridin-4-yl)-1H-pyrazol-5-yl)propanamide]",< 1000
18,CCc1c(-c2ccncc2)n[nH]c1NC(=O)CCc1ccc(Cl)s1 [Example 17],< 1000
19,"Cc1c(-c2ccncc2)n[nH]c1NC(=O)CCc1ccc(Cl)cc1 [Example 19, 3-(4-Chlorophenyl)-N-(4-methyl-3-(pyridin-4-yl)-1H-pyrazol-5-yl)propanamide]",< 1000

# The next lines start with the values.
row,IC50 [nM],Structure (SMILES)
1,1000 to 10000,"Cc1c(-c2ccncc2)n[nH]c1NC(=O)C(F)Cc1ccc(C#N)c(F)c1 (racemic) [Example 70, (rac)-3-(4-Cyano-3-fluorophenyl)-2-fluoro-N-(4-methyl-3-(pyridin-4-yl)-1H-pyrazol-5-yl)propanamide]"
2,< 1000,"Cc1c(-c2ccncc2)n[nH]c1NC(=O)C(F)Cc1cc(F)c(Cl)c(F)c1 (racemic) [Example 71, (rac)-3-(4-Chloro-3,5-difluorophenyl)-2-fluoro-N-(4-methyl-3-(pyridin-4-yl)-1H-pyrazol-5-yl)propanamide]"
3,1000 to 10000,"Cc1c(NC(=O)C(O)Cc2ccc(Cl)cc2)cnn1-c1ccncc1 (racemic) [Example 150, (rac)-3-(4-Chlorophenyl)-2-hydroxy-N-(5-methyl-1-(pyridin-4-yl)-1H-pyrazol-4-yl)propanamide]"
4,1000 to 10000,"Cc1c(-c2ccncc2)n[nH]c1N1C(=O)CC(Cc2ccc(Cl)cc2)C1=O (racemic) [Example 154, (rac)-3-(4-Chlorobenzyl)-1-(4-methyl-3-(pyridin-4-yl)-1H-pyrazol-5-yl)pyrrolidine-2,5-dione]"
5,< 1000,"O=C1CC(c2ccc(Cl)cc2)CC(=O)N1c1cc(-c2ccncc2)n[nH]1 (racemic) [Example 155, (rac)-4-(4-Chlorophenyl)-1-(3-(pyridin-4-yl)-1H-pyrazol-5-yl)piperidine-2,6-dione]"
6,< 1000,"O=C1CC(Cc2ccc(Cl)cc2)C(=O)N1c1cc(-c2ccncc2)n[nH]1 (racemic) [Example 156, (rac)-3-(4-Chlorobenzyl)-1-(3-(pyridin-4-yl)-1H-pyrazol-5-yl)pyrrolidine-2,5-dione]"
7,1000 to 10000,"Cc1c(-c2ccncc2)n[nH]c1N1C(=O)CC(c2ccc(Cl)cc2)CC1=O (racemic) [Example 157, (rac)-4-(4-Chlorophenyl)-1-(4-methyl-3-(pyridin-4-yl)-1H-pyrazol-5-yl)piperidine-2,6-dione]"
8,< 1000,"Cc1c(-c2ccncc2)n[nH]c1NC(=O)CCc1ccc2c(c1)OCO2 [Example 20, 3-(Benzo[d][1,3]dioxol-5-yl)-N-(4-methyl-3-(pyridin-4-yl)-1H-pyrazol-5-yl)propanamide]"
9,1000 to 10000,"Cc1c(-c2ccncc2)n[nH]c1NC(=O)CCc1cc(Cl)cc(Cl)c1 [Example 21, 3-(3,5-Dichlorophenyl)-N-(4-methyl-3-(pyridin-4-yl)-1H-pyrazol-5-yl)propanamide]"
10,1000 to 10000,"Cc1c(-c2ccncc2)n[nH]c1NC(=O)CCc1ccccc1 [Example 22, N-(4-Methyl-3-(pyridin-4-yl)-1H-pyrazol-5-yl)-3-phenylpropanamide]"
11,1000 to 10000,"Cc1c(-c2ccncc2)n[nH]c1NC(=O)CCc1ccccc1Cl [Example 23, 3-(2-Chlorophenyl)-N-(4-methyl-3-(pyridin-4-yl)-1H-pyrazol-5-yl)propanamide]"
12,< 1000,"Cc1ccc(CCC(=O)Nc2[nH]nc(-c3ccncc3)c2C)cc1 [Example 24, N-(4-Methyl-3-(pyridin-4-yl)-1H-pyrazol-5-yl)-3-(p-tolyl)propanamide]"
13,1000 to 10000,"Cc1cccc(CCC(=O)Nc2[nH]nc(-c3ccncc3)c2C)c1 [Example 25, N-(4-Methyl-3-(pyridin-4-yl)-1H-pyrazol-5-yl)-3-(m-tolyl)propanamide]"
14,1000 to 10000,"Cc1ccccc1CCC(=O)Nc1[nH]nc(-c2ccncc2)c1C [Example 26, N-(4-Methyl-3-(pyridin-4-yl)-1H-pyrazol-5-yl)-3-(o-tolyl)propanamide]"
